Experimental data: the supplement of paper PMC4380931
± gives the standard deviation of the averaged measurements.

Assays:
Experiment in all cases: relative viability (cell count relative to DMSO-treated control) (fraction of DMSO control); higher = more viable cells / less drug effect
COLO858 = details: 72 h
Experimental: (§1)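 BRAF V600E/D melanoma cell lines were seeded in 96-well plates, treated in 4 replicates with seven doses (3.16 nM to 3.16 uM) of RAF/MEK inhibitors for 24, 48 or 72 h, and stained with Hoechst 33342 (nuclei) and DEVD-NucView488 caspase-3 substrate. Plates were imaged on an Operetta. Relative viability is the cell count normalised to a DMSO-treated control; apoptosis fraction is the fraction of NucView488-positive nuclei.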

SKMEL28 = tested on: SKMEL28
Experimental: as §1

WM115 = tested on: WM115
Experimental: as §1

WM1552C = tested on: WM1552C
Experimental: as §1

CCCS(=O)(=O)Nc1ccc(F)c(C(=O)c2c[nH]c3ncc(-c4ccc(Cl)cc4)cc23)c1F [Vemurafenib]
COLO858
Details | relative viability
0.1 µM | 1.15 ± 0.13
0.316 µM | 0.68 ± 0.076
1 µM | 0.393 ± 0.052
3.16 µM | 0.127 ± 0.018

relative viability
Details | 0.00316 µM | 0.01 µM | 0.0316 µM | 0.1 µM | 0.316 µM | 1 µM | 3.16 µM
SKMEL28, 48 h | 0.828 ± 0.1 | 1.18 ± 0.22 | 1.18 ± 0.28 | 1.07 ± 0.24 | 0.973 ± 0.22 | 0.71 ± 0.15 | 0.542 ± 0.099
SKMEL28, 72 h | 0.955 ± 0.11 | 0.88 ± 0.087 | 0.947 ± 0.13 | 0.922 ± 0.035 | 0.651 ± 0.048 | 0.491 ± 0.041 | 0.39 ± 0.032
WM115, 24 h | 1.17 ± 0.16 | 1.2 ± 0.23 | 1.22 ± 0.33 | 1.18 ± 0.35 | 1.17 ± 0.39 | 1.22 ± 0.32 | 1.24 ± 0.29
WM115, 48 h | 1.04 ± 0.48 | 1.24 ± 0.51 | 1.24 ± 0.32 | 1.45 ± 0.31 | 1.73 ± 0.29 | 1.31 ± 0.33 | 0.884 ± 0.34
WM115, 72 h | 0.953 ± 0.064 | 1.04 ± 0.038 | 1.05 ± 0.024 | 1.07 ± 0.028 | 0.855 ± 0.041 | 0.571 ± 0.037 | 0.27 ± 0.049
WM1552C, 24 h | 0.92 ± 0.085 | 0.969 ± 0.039 | 0.912 ± 0.045 | 1.06 ± 0.068 | 1.03 ± 0.026 | 0.987 ± 0.024 | 0.875 ± 0.053
WM1552C, 48 h | 0.9247 ± 0.008 | 1 ± 0.044 | 1.01 ± 0.061 | 1 ± 0.044 | 1.06 ± 0.075 | 0.886 ± 0.012 | 0.719 ± 0.041
WM1552C, 72 h | 1.06 ± 0.1 | 1.14 ± 0.079 | 1.17 ± 0.12 | 1.2 ± 0.13 | 1.06 ± 0.1 | 0.671 ± 0.058 | 0.42 ± 0.039
